# From US11254663B2 (BRISTOL-MYERS SQUIBB COMPANY, priority 2019, dated 2022)
# Biological target: FXR (Homo sapiens (Human), UniProt Q96RI1)
# Assay: transient human FXR/Gal4-luciferase reporter assay
# Format: cell-based
# Conditions: not given
# Method in brief: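 Compound exposure ran overnight at 37 °C and activity was measured as luminescence with Steady-Glo reagent. The cells were a HEK293 line stably expressing firefly luciferase under five Gal4 response elements. They were transiently transfected, one night beforehand, with a plasmid encoding Gal4 DNA-binding domain fused to the human FXR ligand-binding domain.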
# Sequence of FXR (Q96RI1 262-486): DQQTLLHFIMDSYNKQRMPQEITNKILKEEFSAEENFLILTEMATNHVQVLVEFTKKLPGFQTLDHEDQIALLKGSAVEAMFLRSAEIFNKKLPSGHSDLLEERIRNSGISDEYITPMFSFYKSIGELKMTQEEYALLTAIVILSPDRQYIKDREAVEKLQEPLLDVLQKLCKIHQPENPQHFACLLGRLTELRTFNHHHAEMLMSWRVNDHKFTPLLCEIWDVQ
row,SMILES,EC50
1,"CC(C)(O)c1ccc(-c2cccc(N(CC34CCC(c5noc(C(C)(C)F)n5)(CC3)CC4)C(=O)N3CC(O)(C(F)(F)F)C3)c2)cc1 [Example 643, N-((4-(5-(2-fluoropropan-2-yl)-1,2,4-oxadiazol-3-yl)bicyclo[2.2.2]octan-1-yl)methyl)-3-hydroxy-N-(4′-(2-hydroxypropan-2-yl)-[1,1′-biphenyl]-3-yl)-3-(trifluoromethyl)azetidine-1-carboxamide]",235 nM
2,"Cc1nc2ccc(-c3ccnc(N(CC45CCC(c6noc(C(C)(C)C)n6)(CC4)CC5)C(=O)C45CC(F)(C4)C5)c3)cc2s1 [Example 537, N-((4-(5-(tert-butyl)-1,2,4-oxadiazol-3-yl)bicyclo[2.2.2]octan-1-yl)methyl)-3-fluoro-N-(4-(2-methylbenzo[d]thiazol-6-yl)pyridin-2-yl)bicyclo[1.1.1]pentane-1-carboxamide]",67 nM
3,"CCOc1cnc(-c2ccnc(N(CC34CCC(c5noc(C(C)(C)C)n5)(CC3)CC4)C(=O)C34CC(F)(C3)C4)c2)nc1 [Example 542, N-((4-(5-(tert-butyl)-1,2,4-oxadiazol-3-yl)bicyclo[2.2.2]octan-1-yl)methyl)-N-(4-(5-ethoxypyrimidin-2-yl)pyridin-2-yl)-3-fluorobicyclo[1.1.1]pentane-1-carboxamide]",22 nM

# Same assay, conditions: Gal4-hFXR fusion construct, HEK293 reporter cells; response relative to 8 μM GW-4064
row,SMILES,EC50
1,"COc1cc(-c2cccc(N(CC34CCC(C(=O)NC5CC5)(CC3)CC4)C(=O)C34CC(F)(C3)C4)c2)ccn1 [Example 570, N-cyclopropyl-4-((3-fluoro-N-(3-(2-methoxypyridin-4-yl)phenyl)bicyclo[1.1.1]pentane-1-carboxamido)methyl)bicyclo[2.2.2]octane-1-carboxamide]",926 nM
2,"COc1cc(-c2cccc(N(CC34CCC(c5nc(C6CC6)no5)(CC3)CC4)C(=O)C34CC(F)(C3)C4)c2)ccc1F [Example 260, N-((4-(3-cyclopropyl-1,2,4-oxadiazol-5-yl)bicyclo[2.2.2]octan-1-yl)methyl)-3-fluoro-N-(4′-fluoro-3′-methoxy-[1,1′-biphenyl]-3-yl)bicyclo[1.1.1]pentane-1-carboxamide]",693 nM
3,"COc1ccc(-c2cccc(N(CC34CCC(c5nc(C6CC6)no5)(CC3)CC4)C(=O)C34CC(F)(C3)C4)c2)cc1 [Example 282, N-((4-(3-cyclopropyl-1,2,4-oxadiazol-5-yl)bicyclo[2.2.2]octan-1-yl)methyl)-3-fluoro-N-(4′-methoxy-[1,1′-biphenyl]-3-yl)bicyclo[1.1.1]pentane-1-carboxamide]",19 nM
4,"CC(C)(C#N)Oc1ccc(-c2cccc(N(CC34CCC(c5noc(C(C)(C)F)n5)(CC3)CC4)C(=O)N3CCC(C(C)(C)O)CC3)c2)cc1 [Example 651, N-(4′-((2-cyanopropan-2-yl)oxy)-[1,1′-biphenyl]-3-yl)-N-((4-(5-(2-fluoropropan-2-yl)-1,2,4-oxadiazol-3-yl)bicyclo[2.2.2]octan-1-yl)methyl)-4-(2-hydroxypropan-2-yl)piperidine-1-carboxamide]",273 nM
5,"COc1cc(-c2cccc(N(CC34CCC(c5nnc(C)s5)(CC3)CC4)C(=O)C3CC(O)(C(F)(F)F)C3)c2)ccn1 [Example 236, (1S,3S)-3-hydroxy-N-(3-(2-methoxypyridin-4-yl)phenyl)-N-((4-(5-methyl-1,3,4-thiadiazol-2-yl)bicyclo[2.2.2]octan-1-yl)methyl)-3-(trifluoromethyl)cyclobutane-1-carboxamide]",1540 nM
6,"CC(C)(O)c1ccc(-c2cccc(N(CC34CCC(c5nc(C6CC6)no5)(CC3)CC4)C(=O)OC(C)(C)C(F)(F)F)c2)cc1 [Example 623, 1,1,1-trifluoro-2-methylpropan-2-yl((4-(3-cyclopropyl-1,2,4-oxadiazol-5-yl)bicyclo[2.2.2]octan-1-yl)methyl)(4′-(2-hydroxypropan-2-yl)-[1,1′-biphenyl]-3-yl)carbamate]",50 nM
7,"COc1ncc(-c2cccc(N(CC34CCC(c5nnc(C6CC6)o5)(CC3)CC4)C(=O)C34CC(F)(C3)C4)c2)cn1 [Example 341, N-((4-(5-cyclopropyl-1,3,4-oxadiazol-2-yl)bicyclo[2.2.2]octan-1-yl)methyl)-3-fluoro-N-(3-(2-methoxypyrimidin-5-yl)phenyl)bicyclo[1.1.1]pentane-1-carboxamide]",287 nM
8,"N#Cc1cnn2c(-c3cccc(N(CC45CCC(c6nc(C7CC7)no6)(CC4)CC5)C(=O)C45CC(F)(C4)C5)c3)cnc2c1 [Example 314, N-(3-(7-cyanoimidazo[1,2-b]pyridazin-3-yl)phenyl)-N-((4-(3-cyclopropyl-1,2,4-oxadiazol-5-yl)bicyclo[2.2.2]octan-1-yl)methyl)-3-fluorobicyclo[1.1.1]pentane-1-carboxamide]",504 nM
9,"Cc1cn2cc(-c3cccc(N(CC45CCC(c6nc(C7CC7)no6)(CC4)CC5)C(=O)C45CC(F)(C4)C5)c3)cc(C)c2n1 [Example 322, N-((4-(3-cyclopropyl-1,2,4-oxadiazol-5-yl)bicyclo[2.2.2]octan-1-yl)methyl)-N-(3-(2,8-dimethylimidazo[1,2-a]pyridin-6-yl)phenyl)-3-fluorobicyclo[1.1.1]pentane-1-carboxamide]",270 nM
10,"CC(C)Oc1ccc(-c2cccc(N(CC34CCC(c5cc(C(C)(F)F)n(C)n5)(CC3)CC4)C(=O)OC(C)(C)C(F)(F)F)c2)cc1 [Example 658, 1,1,1-trifluoro-2-methylpropan-2-yl ((4-(5-(1,1-difluoroethyl)-1-methyl-1H-pyrazol-3-yl)bicyclo[2.2.2]octan-1-yl)methyl)(4′-isopropoxy-[1,1′-biphenyl]-3-yl)carbamate]",917 nM
11,"O=C(N(CC12CCC(c3nc(C4CC4)no3)(CC1)CC2)c1cccc(-c2ccc3nc(O)ccc3c2)c1)C12CC(F)(C1)C2 [Example 331, N-((4-(3-cyclopropyl-1,2,4-oxadiazol-5-yl)bicyclo[2.2.2]octan-1-yl)methyl)-3-fluoro-N-(3-(2-hydroxyquinolin-6-yl)phenyl)bicyclo[1.1.1]pentane-1-carboxamide]",231 nM
12,"COc1cc(-c2cccc(N(CC34CCC(c5nnc(C)s5)(CC3)CC4)C(=O)C3CCCC3)c2)ccn1 [Example 233, N-(3-(2-methoxypyridin-4-yl)phenyl)-N-((4-(5-methyl-1,3,4-thiadiazol-2-yl)bicyclo[2.2.2]octan-1-yl)methyl)cyclopentanecarboxamide]",1100 nM
13,"COc1ncc(-c2cccc(N(CC34CCC(c5noc(C6(C)CC6)n5)(CC3)CC4)C(=O)C34CC(F)(C3)C4)c2)cn1 [Example 400, 3-fluoro-N-(3-(2-methoxypyrimidin-5-yl)phenyl)-N-((4-(5-(1-methylcyclopropyl)-1,2,4-oxadiazol-3-yl)bicyclo[2.2.2]octan-1-yl)methyl)bicyclo[1.1.1]pentane-1-carboxamide]",51 nM
14,"CC(F)(F)c1nc(C23CCC(CN(C(=O)C4CC(O)(C(F)(F)F)C4)c4cccc(-c5ccc(C(O)C(F)F)cc5)c4)(CC2)CC3)no1 (single isomer, unassigned) [Example 628 (first eluting isomer)]",92 nM
15,"O=C(N(CC12CCC(c3nc(C4CC4)no3)(CC1)CC2)c1cccc(-c2cnc(C(F)(F)F)nc2)c1)C12CC(F)(C1)C2 [Example 262, N-((4-(3-cyclopropyl-1,2,4-oxadiazol-5-yl)bicyclo[2.2.2]octan-1-yl)methyl)-3-fluoro-N-(3-(2-(trifluoromethyl)pyrimidin-5-yl)phenyl)bicyclo[1.1.1]pentane-1-carboxamide]",140 nM
16,"COc1ccc(C23CCC(CN(C(=O)C45CC(F)(C4)C5)c4cccc(-c5ccc6nc(C)sc6c5)c4)(CC2)CO3)cc1 [Example 556, 3-Fluoro-N-((1-(4-methoxyphenyl)-2-oxabicyclo[2.2.2]octan-4-yl)methyl)-N-(3-(2-methylbenzo[d]thiazol-6-yl)phenyl)bicyclo[1.1.1]pentane-1-carboxamide]",816 nM
17,"Cc1nc2ccc(-c3ccnc(N(CC45CCC(c6nc(C7CC7)no6)(CC4)CC5)C(=O)C45CC(F)(C4)C5)c3)cc2s1 [Example 549, N-((4-(3-cyclopropyl-1,2,4-oxadiazol-5-yl)bicyclo[2.2.2]octan-1-yl)methyl)-3-fluoro-N-(4-(2-methylbenzo[d]thiazol-6-yl)pyridin-2-yl)bicyclo[1.1.1]pentane-1-carboxamide]",36 nM
18,"COc1cnc(-c2cccc(N(CC34CCC(c5nc(C6CC6)no5)(CC3)CC4)C(=O)C34CC(F)(C3)C4)c2)nc1 [Example 334, N-((4-(3-cyclopropyl-1,2,4-oxadiazol-5-yl)bicyclo[2.2.2]octan-1-yl)methyl)-3-fluoro-N-(3-(5-methoxypyrimidin-2-yl)phenyl)bicyclo[1.1.1]pentane-1-carboxamide]",77 nM
19,"COc1ccc(-c2cccc(N(CC34CCC(c5cc(C6CC6)n(C)n5)(CC3)CC4)C(=O)C34CC(F)(C3)C4)c2)cc1 [Example 408, N-((4-(5-cyclopropyl-1-methyl-1H-pyrazol-3-yl)bicyclo[2.2.2]octan-1-yl)methyl)-3-fluoro-N-(4′-methoxy-[1,1′-biphenyl]-3-yl)bicyclo[1.1.1]pentane-1-carboxamide]",160 nM
20,"CC1(c2nc(C34CCC(CN(C(=O)C56CC(F)(C5)C6)c5cccc(-c6ccc(NS(=O)(=O)C7CC7)cc6)c5)(CC3)CC4)no2)CC1 [Example 397, N-(4′-(cyclopropanesulfonamido)-[1,1′-biphenyl]-3-yl)-3-fluoro-N-((4-(5-(1-methylcyclopropyl)-1,2,4-oxadiazol-3-yl)bicyclo[2.2.2]octan-1-yl)methyl) bicyclo[1.1.1]pentane-1-carboxamide]",183 nM
21,"CC(C)c1noc(C23CCC(CN(C(=O)C45CC(F)(C4)C5)c4cccc(-c5ccc(OC(F)F)cc5)c4)(CC2)CC3)n1 [Example 387, N-(4′-(difluoromethoxy)-[1,1′-biphenyl]-3-yl)-3-fluoro-N-((4-(3-isopropyl-1,2,4-oxadiazol-5-yl)bicyclo[2.2.2]octan-1-yl)methyl)bicyclo[1.1.1]pentane-1-carboxamide]",47 nM
